Measurements reported in ChEMBL document CHEMBL1909046, “DrugMatrix in vitro pharmacology data”.

Experiments:
Calcitonin receptor = biological target: T1, Calcitonin receptor (Homo sapiens, UniProt P30988); type: cell membranes, Membrane; conditions: t47d; also: in other assays of this panel Not Active means under 50% inhibition at 10 µM
T1 sequence (P30988 whole entry): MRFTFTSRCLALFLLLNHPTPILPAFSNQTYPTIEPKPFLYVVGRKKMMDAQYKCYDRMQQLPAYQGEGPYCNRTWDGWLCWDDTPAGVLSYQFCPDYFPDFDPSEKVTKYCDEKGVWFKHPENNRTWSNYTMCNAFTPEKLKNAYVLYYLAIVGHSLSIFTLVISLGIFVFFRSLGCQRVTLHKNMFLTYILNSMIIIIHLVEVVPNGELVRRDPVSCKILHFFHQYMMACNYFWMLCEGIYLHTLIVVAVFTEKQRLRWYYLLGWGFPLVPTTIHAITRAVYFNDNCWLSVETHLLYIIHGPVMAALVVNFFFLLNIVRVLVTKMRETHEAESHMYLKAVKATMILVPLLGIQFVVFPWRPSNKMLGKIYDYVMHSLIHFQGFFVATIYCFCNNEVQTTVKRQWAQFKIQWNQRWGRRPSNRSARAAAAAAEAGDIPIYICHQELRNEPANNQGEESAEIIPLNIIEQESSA

[1] = DRUGMATRIX: Serotonin (5-Hydroxytryptamine) 5-HT3 radioligand binding (ligand: [3H] GR-65630); type: cell membranes, Membrane; conditions: hek293; Not Active = under 50% inhibition at 10 µM
Substance-K receptor = biological target: T2, Substance-K receptor (Homo sapiens, UniProt P21452); type: cell membranes, CHO, Membrane; conditions: cho; also: in other assays of this panel Not Active means under 50% inhibition at 10 µM
T2 sequence (P21452 whole entry): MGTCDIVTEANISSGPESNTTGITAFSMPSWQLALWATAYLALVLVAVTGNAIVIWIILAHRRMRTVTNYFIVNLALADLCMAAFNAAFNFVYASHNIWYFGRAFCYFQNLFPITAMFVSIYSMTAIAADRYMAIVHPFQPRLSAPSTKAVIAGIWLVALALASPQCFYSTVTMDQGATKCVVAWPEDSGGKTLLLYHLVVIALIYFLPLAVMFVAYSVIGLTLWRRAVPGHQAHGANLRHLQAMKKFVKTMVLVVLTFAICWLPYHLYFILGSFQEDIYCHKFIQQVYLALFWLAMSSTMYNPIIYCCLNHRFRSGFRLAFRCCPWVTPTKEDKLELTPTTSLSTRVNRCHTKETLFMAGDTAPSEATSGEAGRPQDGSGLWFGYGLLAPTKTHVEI

[2] = DRUGMATRIX: GABAA, Flunitrazepam, Central radioligand binding (ligand: [3H] Flunitrazepam); type: cell membranes, Rattus norvegicus, Wistar, Brain, Membrane; conditions: Not Active = under 50% inhibition at 10 µM
[3] = DRUGMATRIX: Glutamate, NMDA, Agonism radioligand binding (ligand: [3H] CGP-39653); type: cell membranes, Rattus norvegicus, Wistar, Cerebral cortex, Membrane; conditions: Not Active = under 50% inhibition at 10 µM
Histamine H2 receptor = Histamine H2 receptor (Homo sapiens, UniProt P25021); type: cell membranes, CHO-K1, Membrane; also: in other assays of this panel Not Active means under 50% inhibition at 10 µM
Chain of Histamine H2 receptor (P25021 whole entry): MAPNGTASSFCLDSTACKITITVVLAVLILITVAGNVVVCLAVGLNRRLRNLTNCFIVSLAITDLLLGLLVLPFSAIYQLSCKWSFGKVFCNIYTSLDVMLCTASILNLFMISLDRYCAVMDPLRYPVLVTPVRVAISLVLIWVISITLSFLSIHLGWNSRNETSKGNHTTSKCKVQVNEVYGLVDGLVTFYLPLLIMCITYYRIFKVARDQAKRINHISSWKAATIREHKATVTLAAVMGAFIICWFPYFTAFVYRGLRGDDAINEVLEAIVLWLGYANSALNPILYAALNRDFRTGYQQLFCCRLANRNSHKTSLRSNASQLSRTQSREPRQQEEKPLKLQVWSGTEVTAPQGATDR

Melanocortin receptor 4 = Melanocortin receptor 4 (Homo sapiens, UniProt P32245); type: cell membranes, Membrane; conditions: hek293; also: in other assays of this panel Not Active means under 50% inhibition at 10 µM
Chain of Melanocortin receptor 4 (P32245 whole entry): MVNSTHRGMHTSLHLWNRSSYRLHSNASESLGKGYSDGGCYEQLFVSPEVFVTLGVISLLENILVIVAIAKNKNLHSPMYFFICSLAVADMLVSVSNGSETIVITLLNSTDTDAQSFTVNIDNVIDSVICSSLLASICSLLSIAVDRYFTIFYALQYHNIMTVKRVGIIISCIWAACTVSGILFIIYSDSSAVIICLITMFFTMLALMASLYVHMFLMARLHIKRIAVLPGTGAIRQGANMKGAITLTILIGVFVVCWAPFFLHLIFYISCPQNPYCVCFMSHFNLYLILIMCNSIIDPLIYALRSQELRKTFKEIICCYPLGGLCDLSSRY

| Compound | IC50 (Calcitonin receptor) | IC50 [1] | Ki [1] | IC50 (Substance-K receptor) | IC50 [2] | Ki [2] | IC50 [3] | Ki [3] | IC50 (Histamine H2 receptor; read-out: IC50) [nM] | Ki (Histamine H2 receptor; read-out: Ki) [nM] | IC50 (Melanocortin receptor 4) | IC50 (Histamine H2 receptor; cho-k1) | IC50 ([2]; read-out: IC50) [nM] | Ki ([2]; read-out: Ki) [nM] | Ki (Calcitonin receptor) | Ki (Substance-K receptor) | Ki (Histamine H2 receptor; cho-k1) | Ki (Melanocortin receptor 4) |
| --- | --- | --- | --- | --- | --- | --- | --- | --- | --- | --- | --- | --- | --- | --- | --- | --- | --- | --- |
| CC(C)Cn1cnc2c(N)nc3ccccc3c21 [IMIQUIMOD] | Not Active | Not Active | Not Active | Not Active | Not Active | Not Active | Not Active | Not Active | 1510 | 1480 | Not Active | – | – | – | – | – | – | – |
| COc1cc(NC(C)CCCN)c2ncccc2c1 (stereo unspecified) [PRIMAQUINE] | Not Active | Not Active | Not Active | Not Active | Not Active | Not Active | Not Active | Not Active | – | – | Not Active | Not Active | – | – | – | – | – | – |
| O=C(O)COC(=O)Cc1ccccc1Nc1c(Cl)cccc1Cl [ACECLOFENAC] | Not Active | Not Active | Not Active | Not Active | Not Active | Not Active | Not Active | Not Active | – | – | Not Active | Not Active | – | – | – | – | – | – |
| C#C[C@]1(O)CC[C@H]2[C@@H]3CCC4=CC(=O)CC[C@@H]4[C@H]3CC[C@@]21C [NORETHINDRONE] | Not Active | Not Active | Not Active | Not Active | – | – | Not Active | Not Active | – | – | Not Active | Not Active | 13300 | 10900 | – | – | – | – |
| CC(C)(C#N)c1cc(Cn2cncn2)cc(C(C)(C)C#N)c1 [ANASTROZOLE] | Not Active | Not Active | Not Active | Not Active | Not Active | Not Active | Not Active | Not Active | – | – | Not Active | Not Active | – | – | – | – | – | – |
| Cc1cc(C(C)(C)C)c(O)c(C)c1CC1=NCCN1 [OXYMETAZOLINE] | Not Active | Not Active | Not Active | Not Active | Not Active | Not Active | Not Active | Not Active | – | – | Not Active | Not Active | – | – | – | – | – | – |
| O=C(Nc1ccc(Cl)c(Cl)c1)c1cc(Cl)cc(Cl)c1O [3,3',4',5-TETRACHLOROSALICYLANILIDE] | Not Active | Not Active | Not Active | Not Active | Not Active | Not Active | Not Active | Not Active | – | – | Not Active | Not Active | – | – | – | – | – | – |
| O=C(O)CO [GLYCOLIC ACID] | Not Active | Not Active | Not Active | Not Active | Not Active | Not Active | Not Active | Not Active | – | – | Not Active | Not Active | – | – | – | – | – | – |
| COC(=O)C[C@](O)(CCC(C)(C)O)C(=O)O[C@@H]1C(OC)=C[C@]23CCCN2CCc2cc4c(cc2[C@H]13)OCO4 [HARRINGTONINE] | Not Active | Not Active | Not Active | Not Active | Not Active | Not Active | Not Active | Not Active | – | – | Not Active | Not Active | – | – | – | – | – | – |
| CC(C)(c1ccc(O)cc1)c1ccc(O)cc1 [BISPHENOL A] | Not Active | Not Active | Not Active | Not Active | Not Active | Not Active | Not Active | Not Active | – | – | Not Active | Not Active | – | – | – | – | – | – |
| C=CCO [ALLYL ALCOHOL] | Not Active | Not Active | Not Active | Not Active | Not Active | Not Active | Not Active | Not Active | – | – | Not Active | Not Active | – | – | – | – | – | – |
| C[C@]12CC[C@@H](O)C[C@@H]1CC[C@@H]1[C@@H]2CC[C@]2(C)C(=O)CC[C@@H]12 [ANDROSTERONE] | Not Active | Not Active | Not Active | Not Active | Not Active | Not Active | Not Active | Not Active | – | – | Not Active | Not Active | – | – | – | – | – | – |
| COc1ccc(Cl)cc1C(=O)NCCc1ccc(S(=O)(=O)NC(=O)NC2CCCCC2)cc1 [GLYBURIDE] | Not Active | Not Active | Not Active | Not Active | Not Active | Not Active | Not Active | Not Active | – | – | Not Active | Not Active | – | – | – | – | – | – |
| CC(CN1c2ccccc2Sc2ccccc21)N(C)C (stereo unspecified) [PROMETHAZINE] | Not Active | Not Active | Not Active | Not Active | Not Active | Not Active | Not Active | Not Active | 1160 | 1150 | Not Active | – | – | – | – | – | – | – |
| C[N+](C)(C)CCOP(=O)([O-])OC[C@H](O)CO | Not Active | Not Active | Not Active | Not Active | Not Active | Not Active | Not Active | Not Active | – | – | Not Active | Not Active | – | – | – | – | – | – |
| NCC(CC(=O)O)c1ccc(Cl)cc1 (stereo unspecified) [BACLOFEN] | Not Active | Not Active | Not Active | Not Active | Not Active | Not Active | Not Active | Not Active | – | – | Not Active | Not Active | – | – | – | – | – | – |
| CC12CCC(CC1=O)C2(C)C (stereo unspecified) [CAMPHOR] | Not Active | Not Active | Not Active | Not Active | Not Active | Not Active | Not Active | Not Active | – | – | Not Active | Not Active | – | – | – | – | – | – |
| POVIDONE | Not Active | Not Active | Not Active | Not Active | Not Active | Not Active | Not Active | Not Active | – | – | Not Active | Not Active | – | – | Not Active | Not Active | Not Active | Not Active |
| CN(Cc1cc(Br)cc(Br)c1N)C1CCCCC1 [BROMHEXINE] | Not Active | Not Active | Not Active | Not Active | Not Active | Not Active | Not Active | Not Active | – | – | Not Active | Not Active | – | – | – | – | – | – |
| Cc1ccnc2c1NC(=O)c1cccnc1N2C1CC1 [NEVIRAPINE] | Not Active | Not Active | Not Active | Not Active | Not Active | Not Active | Not Active | Not Active | – | – | Not Active | Not Active | – | – | – | – | – | – |
| CCN1CCN(C(=O)N[C@@H](C(=O)N[C@@H]2C(=O)N3[C@@H]2SC(C)(C)[C@@H]3C(=O)O)c2ccccc2)C(=O)C1=O [PIPERACILLIN] | Not Active | Not Active | Not Active | Not Active | Not Active | Not Active | Not Active | Not Active | – | – | Not Active | Not Active | – | – | – | – | – | – |
| O=C(O)c1ccccc1 [BENZOIC ACID] | Not Active | Not Active | Not Active | Not Active | Not Active | Not Active | Not Active | Not Active | – | – | Not Active | Not Active | – | – | – | – | – | – |
| CC[C@H]1OC(=O)[C@H](C)[C@@H](O[C@H]2C[C@@](C)(OC)[C@@H](O)[C@H](C)O2)[C@H](C)[C@@H](O[C@@H]2O[C@H](C)C[C@H](N(C)C)[C@H]2O)[C@](C)(O)C[C@@H](C)C(=O)[C@H](C)[C@@H](O)[C@]1(C)O [ERYTHROMYCIN] | Not Active | Not Active | Not Active | Not Active | Not Active | Not Active | Not Active | Not Active | – | – | Not Active | Not Active | – | – | – | – | – | – |
| c1ccc2c(c1)Nc1ccccc1S2 [PHENOTHIAZINE] | Not Active | Not Active | Not Active | Not Active | Not Active | Not Active | Not Active | Not Active | – | – | Not Active | Not Active | – | – | – | – | – | – |
